In patent publication US20240139151A1, “COMPOSITION INCLUDING DECURSINOL AS ACTIVE INGREDIENT FOR PREVENTING OR TREATING SMOOTH MUSCLE CELL PROLIFERATIVE DISEASES” (KYUNGSUNG UNIVERSITY INDUSTRY COOPERATION FOUNDATION, priority 2021, published 2024):
Entries after “also recorded” stand apart in the source; their conditions may differ.

Experiments:
[1] = test system: vascular smooth cell line A10; assay: Inhibition of high glucose-induced proliferation of A10 cells (EC100); format: cell-based; settings: 30 mM D-glucose, 0-500 μM
Experimental: (§1) The vascular smooth cell line A10 was loaded at a density of 1×10^3 cells/ml into 96-well plates and after 16 hours, the medium was replaced with a medium having a concentration of 5.5 mM or 30 mM D-glucose. Subsequently, decursin, decursinol angelate and decursinol were each applied at concentrations of 0, 20, 50, 100, 200, and 500 μM to the cells. IC50, a concentration at which the growth of the cells is inhibited by 50%, and EC100, a concentration which inhibits the growth of cells in a high sugar level environment to a normal cell population, were measured, and therapeutic indices were calculated by dividing IC50 by EC100. […] Then, effects of decursin and decursinol angelate to inhibit the proliferation of A10 cells in high glucose were expressed as EC100. EC100 refers to the concentration at which high glucose-induced proliferation of A10 cells is inhibited to normal glucose levels by the drug.

in vitro = settings: rat, IC50, concentration at which the growth of the cells is inhibited by 50% (cytotoxicity)
Experimental: as §1

[2] = Cytotoxicity (IC50) on A10 cells; settings: rat, A10 vascular smooth muscle cells, IC50, concentration at which the growth of the cells is inhibited by 50% (cytotoxicity), 0-500 μM, cytotoxicity under normal glucose conditions
Experimental: as §1

[3] = Blood pressure safety test in rats after two weeks of oral administration; format: in vivo; settings: measured the day after final administration
Source text: The present inventors have been studying Angelica gigas Nakai for many years while observing the effect of Angelica gigas Nakai extract on blood pressure. In general, Angelica gigas Nakai is a traditional herb that has been used for food and medicine for a long time because of its excellent hematopoietic, anticancer, antioxidant, and anti-inflammatory actions. However, direct use of the Angelica gigas extract has the problem of inducing high blood pressure according to the preparation thereof. In this Example, the Angelica extracts obtained in Examples 1-1 and 1-2 and 99.9% pure decursinol of the present disclosure were administered to rats and assayed for safety for blood pressure.
Using a blood pressure analyzer (3R229 3 channel rat system, Life Science), rats were measured for blood pressure while being acclimated to blood measurement operation. When the blood pressure analyzer is being operated, laboratory rats are startled by the sound of air pressure and rise in blood pressure. In order to eliminate this effect, after adaptation by repeatedly measuring 5 times a day, the experiment was performed when the blood pressure was kept stable, and the blood pressure was regularly measured every day even during the experiment to adapt the rats to the analyzer. When measuring blood pressure, the head was covered with a handkerchief to block light for stabilization. Fifteen experimental rats were divided into 5 groups of 3 rats for the next administration experiment and measured for blood pressure. A control (physiological saline), the Angelica extracts, and decursinol were each orally administered for two weeks, and the blood pressures measured the next day after the final administration are given in Table 1.

[4] = test system: vascular smooth muscle cell line A10; assay: Effect of decursinol on high sugar-induced proliferation of A10 cells (cell count); format: cell-based
Experimental: The effect of decursinol on the high sugar-induced proliferation of A10 cells was investigated. […] Then, each well was treated with 25 μM of solubilized decursinol, and the cells were counted after 1, 2, and 3 days. The results are depicted in FIG. 4.

[5] = test system: phospho-protein kinase C (p-PKC); assay: Western blotting of phospho-PKC with a pan-phospho-PKC antibody in A10 cells; format: cell-based; settings: 30 mM D-glucose, 10 and 25 μM solubilized decursinol, 24 hours
Experimental: Examination was made to see whether the inhibitory effect of decursinol on high sugar-induced proliferation of A10 cells was associated with PKC. […] Then, each well was treated with 10 and 25 μM of solubilized decursinol and incubated for 24 hours. Western blotting was carried out using a pan-phospho-PKC antibody and the results are depicted in FIG. 5.

[6] = test system: vascular smooth muscle cell line A10; assay: Cytotoxicity of decursinol, live and dead cell count; format: cell-based; settings: live and dead cells counted
Source text: In order to examine the cytotoxicity of decursinol, both live and dead cells were counted. After treatment with decursinol, 98% or more of live cells were observed alive.

[7] = test system: vascular smooth cell line A10; settings: rat
Experimental: as §1

SMILES	EC100, concentration at which high glucose-induced proliferation of A10 cells is inhibited to normal glucose levels [1]	IC50 (in vitro)	IC50 [2]	Diastolic blood pressure ([3]; 0.5 mg/kg)	Systolic blood pressure ([3]; 0.5 mg/kg)	Diastolic blood pressure ([3]; 1.0 mg/kg)	Systolic blood pressure ([3]; 1.0 mg/kg)	Diastolic blood pressure ([3]; 2.0 mg/kg)	Systolic blood pressure ([3]; 2.0 mg/kg)	Diastolic blood pressure ([3]; 5.0 mg/kg)	Systolic blood pressure ([3]; 5.0 mg/kg)	Effect on proliferation of A10 cells at normal sugar concentration ([4]; 5.5 mM D-glucose, 25 μM solubilized decursinol, days 1-3)	Effect on proliferation of A10 cells in high glucose ([4]; 30 mM D-glucose)	Inhibition of proliferation of A10 cells in high glucose ([4]; 30 mM D-glucose, 25 μM solubilized decursinol, day 3)	Expression level of phospho-PKC in high sugar [5]	Live cells after treatment with decursinol [6]	IC50 [7]
CC(C)=CC(=O)O[C@H]1Cc2cc3ccc(=O)oc3cc2OC1(C)C [Decursin, decursin]	7.2 µM	82.7 µM	–	–	–	–	–	–	–	–	–	–	–	–	–	–	–
C/C=C(/C)C(=O)O[C@H]1Cc2cc3ccc(=O)oc3cc2OC1(C)C [Decursinol angelate, decursinol angelate]	4.4 µM	–	124 µM	–	–	–	–	–	–	–	–	–	–	–	–	–	–
CC1(C)Oc2cc3oc(=O)ccc3cc2C[C@@H]1O [Decursinol, decursinol]	10.1 µM	≥ 500 µM	–	91 mmHg	110 mmHg	92 mmHg	110 mmHg	92 mmHg	117 mmHg	90 mmHg	115 mmHg	did not significantly inhibit; also recorded: not affected	significantly inhibited; also recorded: inhibited cell proliferation in a dose-dependent manner	about 20%	significantly decreased the increased expression level of phospho-PKC in high sugar in a dose-dependent manner	≥ 98%	> 500 µM
